Laboratory results reported in ChEMBL document CHEMBL5223175, “Discovery of novel 2-oximino-2-indolylacetamide derivatives as potent anticancer agents capable of inducing cell autophagy and ferroptosis” (Bioorg Med Chem, 2023).
pIC50: −log10 of the molar value.

Tests used:
[1] = tested on: 5-8F; test: Antiproliferative activity against human 5-8F cells assessed as cell viability at 80 uM incubated for 72 hrs by CCK-8 assay; format: functional; settings: read-out: Activity
[2] = tested on: HeLa; test: Antiproliferative activity against human HeLa cells assessed as cell viability at 80 uM incubated for 72 hrs by CCK-8 assay; format: functional; settings: read-out: Activity
[3] = tested on: SK-HEP1; test: Antiproliferative activity against human SK-HEP1 cells assessed as cell viability at 80 uM incubated for 72 hrs by CCK-8 assay; format: functional; settings: read-out: Activity
[4] = tested on: 5-8F; test: Antiproliferative activity against human 5-8F cells assessed as reduction in cell viability incubated for 72 hrs by CCK-8 assay; format: functional, cell-based
[5] = tested on: CAL-27; test: Antiproliferative activity against human CAL-27 cells assessed as reduction in cell viability incubated for 72 hrs by CCK-8 assay; format: functional, cell-based; settings: CAL-27, 72 h
[6] = tested on: FaDu; test: Antiproliferative activity against human FaDu cells assessed as reduction in cell viability incubated for 72 hrs by CCK-8 assay; format: functional, cell-based
[7] = Antiproliferative activity against human NP69SV40T cells assessed as reduction in cell viability incubated for 72 hrs by CCK-8 assay; format: toxicity, cell-based
[8] = Toxicity in BALB/c mouse xenografted with human 5-8F cells assessed as decrease in body weight at 2 mg/kg, ip administered every 2 days; format: organism-based; settings: in vivo, 48 h, time 2 day

| SMILES | viability at 80 µM [1] | viability at 80 µM [2] | viability at 80 µM [3] | pIC50 [4] | pIC50 [5] | pIC50 [6] | IC50 at 72 h [7] | Activity [8] |
| --- | --- | --- | --- | --- | --- | --- | --- | --- |
| Cn1cc(/C(=N/O)C(=O)Nc2ccc(Br)cc2)c2ccccc21 | 31.5% | 18.4% | 29.1% | – | – | – | – | – |
| Cn1cc(/C(=N/O)C(=O)Nc2ccc(Br)c(F)c2)c2ccccc21 | 75% | 71.2% | 60.6% | – | – | – | – | – |
| Cn1cc(/C(=N/O)C(=O)Nc2cccc(F)c2)c2ccccc21 | 73.1% | 61.2% | 68% | – | – | – | – | – |
| Cc1ccccc1NC(=O)/C(=N/O)c1cn(C)c2ccccc12 | 95.3% | 77.1% | 76.8% | – | – | – | – | – |
| Cn1cc(/C(=N/O)C(=O)Nc2ccc(C(F)(F)F)cc2)c2ccccc21 | 45% | 25.7% | 51.5% | – | – | – | – | – |
| Cn1cc(/C(=N\O)C(=O)Nc2ccc(Br)c(F)c2)c2ccccc21 | 86.8% | 56.7% | 75.6% | – | – | – | – | – |
| Cn1cc(/C(=N\O)C(=O)Nc2cccc(F)c2)c2ccccc21 | 59.3% | 53.2% | 40% | – | – | – | – | – |
| Cn1cc(/C(=N\O)C(=O)Nc2cccc(Cl)c2)c2ccccc21 | 12.7% | 14% | 31.4% | – | – | – | – | – |
| Cn1cc(/C(=N/O)C(=O)Nc2cccc(Cl)c2)c2ccccc21 | 78% | 64.6% | 64.6% | – | – | – | – | – |
| Cn1cc(/C(=N/O)C(=O)Nc2ccc(Cl)cc2)c2ccccc21 | 47.2% | 57.2% | 71.6% | – | – | – | – | – |
| Cc1ccccc1NC(=O)/C(=N\O)c1cn(C)c2ccccc12 | 92.8% | 86.3% | 77.6% | – | – | – | – | – |
| Cn1cc(/C(=N\O)C(=O)Nc2ccc(Br)cc2)c2ccccc21 | 22.1% | 14.8% | 28.9% | – | – | – | – | – |
| COc1cccc2c1C(=O)c1c(O)c3c(c(O)c1C2=O)C[C@@](O)(C(=O)CO)C[C@@H]3O[C@H]1C[C@H](N)[C@H](O)[C@H](C)O1 [DOXORUBICIN] | – | – | – | 6.47 | 6.74 | 6.80 | 110 nM | Toxic |
| Cn1cc(/C(=N\O)C(=O)Nc2ccc(C(F)(F)F)cc2)c2ccccc21 | 10.2% | 15.8% | 15% | – | – | – | – | – |
